Laboratory results from publication PMC11786100, “Chronic GIPR agonism results in pancreatic islet GIPR functional desensitisation” (Molecular Metabolism, 2025).

Key:
[1] = target: T1, GIPR (Mus musculus, UniProt Q0P543); assay: Ex vivo islet GIPR desensitisation (pre-treat/washout/rechallenge cAMP); format: cell-based; conditions: for rechallenge cAMP response after 24-hour pre-treatment: cADDis
T1 construct: from tissue; host or cells: dispersed pancreatic islets of C57BL/6J, CAMPER Pdx1-CreERT2 and CAMPER Som-Cre mice
T1 sequence (Q0P543 19-460): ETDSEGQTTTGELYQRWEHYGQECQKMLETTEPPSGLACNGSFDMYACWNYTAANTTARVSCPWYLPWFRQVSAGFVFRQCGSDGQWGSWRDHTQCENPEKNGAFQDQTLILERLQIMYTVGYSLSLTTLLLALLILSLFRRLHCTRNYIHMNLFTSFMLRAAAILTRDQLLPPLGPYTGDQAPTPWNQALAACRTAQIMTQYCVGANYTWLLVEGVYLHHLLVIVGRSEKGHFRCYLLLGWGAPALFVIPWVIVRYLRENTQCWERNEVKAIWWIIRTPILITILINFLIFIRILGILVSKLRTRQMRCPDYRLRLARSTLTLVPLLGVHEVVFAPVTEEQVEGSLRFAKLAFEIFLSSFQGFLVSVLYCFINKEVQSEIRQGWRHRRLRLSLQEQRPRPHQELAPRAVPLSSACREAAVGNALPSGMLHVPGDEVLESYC
Method: Primary cultures of mouse hypothalamic neurons and dispersed pancreatic islets were transduced with the Green Up cADDis biosensor (Montana Molecular, US). Pancreatic islets from CAMPER^Pdx−1-CreERT2 and CAMPER^Som-Cre mice were not transduced. Cells were pre-treated with peptides as specified, dissolved in culture media. Following 4 h or overnight incubation and a 1-hour washout period, cells were imaged using an epifluorescence microscope at baseline (t = 3 min), following peptide addition (t = 10 min, unless specified otherwise), and following 3-isobutyl-1-methylxanthine (IBMX) (500 μM) and forskolin (FSK) (50 μM) addition (t = 3 min) to maximally stimulate the sensor. In pre-treatment experiments, islet cell fluorescence was normalised to the IBMX/FSK response which was set as 100%. In non-pre-treatment experiments, islet and neuronal cell fluorescence was normalised to both the baseline and IBMX/FSK response. The area-under-the-curve (AUC) for each cell was quantified. Full details of isolation, transduction, plating, imaging and image analysis is provided in the supplementary methods.
During this treatment, peptides were dissolved in islet culture media. Prior to imaging, the peptide washout period was 1 hour in Krebs buffer with 6 mM glucose and 0.1% BSA.
Cells were imaged in Krebs buffer with 6 mM glucose and 0.1% BSA (unless 10% FBS was specified) at 37°C using an automated epifluorescence microscope (modified Nikon Ti-2E with LED illumination). Multiple fields of view (FOV) were imaged in parallel (for islets, multiple wells of a 96 well plate were imaged in parallel), allowing hundreds to thousands of cells to be imaged every minute throughout the time course. For all acquisitions, the first three minutes were baseline recording pre-peptide addition and the last three minutes were a positive control following IBMX (500 μM) and forskolin (50 μM) addition to maximally stimulate the sensor.
Cells were imaged in a similar setup described in the previous paragraph. However, an image spitter (OptoSplit III, Cairn Research Ltd, UK) was used to enable simultaneous acquisition of cyan fluorescent protein (CFP) and yellow fluorescent protein (YFP) emission. cAMP was quantified based on the YFP/CFP FRET ratio from each cell.
cAMP quantification from the raw islet/neuronal images was performed using Fiji v1.54f (NIH). […] The fluorescence intensity of each ROI was measured at each time point. In pre-treatment experiments, islet cell fluorescence was normalised to the maximal IBMX/FSK response which was set as 100%. For non-pre-treatment experiments, neuronal and islet cell fluorescence were normalised to both the baseline and maximal IBMX/FSK response. The AUC during peptide stimulation for each cell was quantified. […]

[2] = tested on: lean and HFD-induced obese mice; assay: In vivo GIPR desensitisation: IPGTT and insulin bleeds; design: species or system mouse
Method: In all in vivo studies, mice were randomised by body weight into groups. Mice received a 50 μL subcutaneous injection of saline (0.9% sodium chloride) or peptide at a specified dose, diluted in saline. Peptide dosing was in nmol per kg of total body weight. For the assessment of the chronic effects of GIP108, mice were injected daily for 15 days. Body composition was measured by EchoMRI on day −1 and day 15. An intraperitoneal glucose tolerance test (IPGTT) (2 g/kg) was conducted on day 14, following 6 h of fasting and 2 h after peptide injection. Non-fasting plasma leptin (ab199082, Abcam, UK), adiponectin (ab226900, Abcam, UK) and amino acids (ab65347, Abcam, UK) were measured on day 16. For the assessments of in vivo GIPR desensitisation, mice were injected at 17:00 with vehicle or GIP108 (30 nmol/kg) prior to an acute food intake study/IPGTT/insulin bleeds conducted the following day. Full details of the in vivo studies are provided in the supplementary methods.
Mice were fasted at 08:00. For all studies, 20% glucose was administered at 14:00, with the injection volume adjusted to the body weight of the mouse such that each mouse received glucose at 2 g/kg. To assess effects of GIP108 on day 14 of the chronic study, mice were dosed with saline or GIP108 at a specified dose at 12:00. […] Blood glucose measurements were taken via tail vein venesection at baseline, t=15, t=30, t=60, t=90 and t=120 mins. Glucose AUC is calculated using y=0. Glucose readings were measured in mmol/L using the same GlucoRx glucometer.
Mice were fasted at 08:00. At 14:00, mice received an intraperitoneal injection with 20% glucose, with the injection volume adjusted to the body weight of the mouse such that each mouse received glucose at 2 g/kg. […] Blood samples were taken via tail vein venesection at baseline and t=15 minutes following injection.
Leptin, adiponectin and amino acids were quantified following chronic GIP108 administration. Plasma amino acids were measured using the Abcam L-amino acid assay kit (ab65347, Abcam, UK). Plasma adiponectin was measured using the Abcam mouse adiponectin ELISA kit (ab226900, Abcam, UK). Plasma leptin was measured using the Abcam mouse leptin ELISA kit (ab199082, Abcam, UK). All assays were performed according to the manufacturer’s protocol and were read using the SpectraMax i3x Microplate Reader (Molecular Devices, US).

In the case of `CC[C@H](C)[C@H](NC(=O)[C@H](CO)NC(=O)[C@H](Cc1ccc(O)cc1)NC(=O)[C@H](CC(=O)O)NC(=O)[C@H](CO)NC(=O)[C@@H](NC(=O)[C@H](Cc1ccccc1)NC(=O)[C@@H](NC(=O)CNC(=O)[C@H](CCC(=O)O)NC(=O)C(C)(C)NC(=O)[C@@H](N)Cc1ccc(O)cc1)[C@@H](C)O)[C@@H](C)CC)C(=O)N[C@@H](C)C(=O)N[C@@H](CC(C)C)C(=O)N[C@@H](CC(=O)O)C(=O)N[C@@H](CCCCN)C(=O)N[C@H](C(=O)N[C@@H](Cc1c[nH]cn1)C(=O)N[C@@H](CCC(N)=O)C(=O)N[C@@H](CCC(N)=O)C(=O)N[C@@H](CC(=O)O)C(=O)N[C@@H](Cc1ccccc1)C(=O)N[C@H](C(=O)N[C@@H](CC(N)=O)C(=O)N[C@@H](Cc1c[nH]c2ccccc12)C(=O)N[C@@H](CC(C)C)C(=O)N[C@@H](CC(C)C)C(=O)N[C@@H](C)C(=O)N[C@@H](CCC(N)=O)C(=O)N[C@@H](CCCCN)C(=O)NCC(=O)N[C@@H](CCCCNC(=O)CC[C@H](NC(=O)CCCCCCCCCCCCCCCCCCC(=O)O)C(=O)O)C(=O)N[C@@H](CCCCN)C(=O)N[C@@H](CC(N)=O)C(=O)N[C@@H](CC(=O)O)C(=O)N[C@@H](Cc1c[nH]c2ccccc12)C(=O)N[C@@H](CCCCN)C(=O)N[C@@H](Cc1c[nH]cn1)C(=O)N[C@@H](CC(N)=O)C(=O)N[C@H](C(=O)N[C@H](C(=O)N[C@@H](CCC(N)=O)C(=O)O)[C@@H](C)O)[C@@H](C)CC)C(C)C)[C@@H](C)CC` [GIP108], the “GIPR desensitisation in pancreatic beta cells” value ([1]; 24 h GIP108 pre-treatment, TEpacVV FRET sensor, CAMPER Pdx-1-CreERT2 mice, n = 4) is reported as “GIPR desensitisation was observed in both cell types”, the “GIPR desensitisation in pancreatic delta cells” value ([1]; 24 h GIP108 pre-treatment, TEpacVV FRET sensor, CAMPER Som-Cre mice, n = 5) is reported as “GIPR desensitisation was observed in both cell types” and the “rechallenge cAMP response after 24-hour pre-treatment” value ([1]; islets from HFD-induced obese mice, pre-treatment and rechallenge GIP108 (1 µM), n=3) is reported as “The same effects were observed”. For the same compound, the “rechallenge cAMP response after 24-hour pre-treatment” value ([1]; pre-treatment 100 nM or 1 μM GIP108, rechallenge GIP108 (1 μM), dispersed islets from lean mice, n = 11–12) was “significantly reduced”, the “effect of GIP108 pre-treatment on hGIP (50 nmol/kg) improvement of glucose tolerance” value ([2]; GIP108 30 nmol/kg s.c. 21 h prior to IPGTT, lean and HFD-induced obese mice, n = 14–16) was “ability to improve glucose tolerance was reduced” and the “plasma insulin response to GIP/glucose administration after GIP108 pre-treatment” value ([2]; GIP108 30 nmol/kg s.c. 21 h prior, hGIP 50 nmol/kg, 15 min, lean mice, n = 8) was “blunted”.
